# According to paper PMC2572143, “Androgen Receptor Functional Analyses by High Throughput Imaging: Determination of Ligand, Cell Cycle, and Mutation-Specific Effects” (PLoS ONE, 2008):
# Numbering of substitutions follows the chain as printed. Like-named read-outs stand apart in the source and are kept apart here.
# Columns and labels:
# [1] = target: T1, GFP-AR (wild type androgen receptor) (Homo sapiens, UniProt P10275); assay: HT imaging multiplex assay, all three parameters together (FLIN, NVAR, CORR2), HeLa GFP-AR
# T1 sequence (P10275 1-920): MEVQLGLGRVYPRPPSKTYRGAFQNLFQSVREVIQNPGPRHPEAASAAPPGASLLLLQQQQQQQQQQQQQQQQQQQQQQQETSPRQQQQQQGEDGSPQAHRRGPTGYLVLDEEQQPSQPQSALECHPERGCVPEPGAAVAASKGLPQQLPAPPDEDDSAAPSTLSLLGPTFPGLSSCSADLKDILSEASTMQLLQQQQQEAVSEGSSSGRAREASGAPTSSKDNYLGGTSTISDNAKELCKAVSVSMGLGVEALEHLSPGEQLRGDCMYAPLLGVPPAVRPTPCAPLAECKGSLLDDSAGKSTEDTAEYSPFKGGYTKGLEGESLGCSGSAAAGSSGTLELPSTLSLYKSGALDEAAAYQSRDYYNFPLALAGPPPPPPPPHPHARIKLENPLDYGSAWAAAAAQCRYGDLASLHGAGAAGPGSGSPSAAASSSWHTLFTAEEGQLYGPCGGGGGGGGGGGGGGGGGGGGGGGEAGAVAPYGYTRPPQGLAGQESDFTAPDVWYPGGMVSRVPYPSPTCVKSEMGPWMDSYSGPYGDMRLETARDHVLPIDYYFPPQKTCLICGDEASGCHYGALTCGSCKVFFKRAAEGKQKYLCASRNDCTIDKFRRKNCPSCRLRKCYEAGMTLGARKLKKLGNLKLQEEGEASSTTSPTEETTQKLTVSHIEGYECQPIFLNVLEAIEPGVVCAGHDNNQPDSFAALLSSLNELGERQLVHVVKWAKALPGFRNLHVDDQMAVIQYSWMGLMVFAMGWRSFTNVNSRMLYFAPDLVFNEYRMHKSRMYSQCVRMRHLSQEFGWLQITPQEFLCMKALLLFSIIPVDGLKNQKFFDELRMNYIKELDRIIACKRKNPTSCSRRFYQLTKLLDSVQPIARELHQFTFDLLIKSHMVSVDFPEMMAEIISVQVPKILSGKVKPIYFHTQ
# Text: (§1) In general, 49 images were captured per well for image analysis.
# [2] = target: T2, GFP-AR T877A (LNCaP mutation) (Homo sapiens, UniProt P10275, T878A); assay: HT imaging multiplex assay, all measurements together, HeLa GFP-AR T877A; type: cell-based
# T2 construct: expressed in transfected cells
# T2 sequence (P10275 1-920 T878A): T1 sequence (P10275 1-920) with T878A
# [3] = target: T3, GFP-AR F764L (AIS mutation) (Homo sapiens, UniProt P10275, F765L); assay: HT imaging multiplex assay, all three parameters together, HeLa GFP-AR F764L; type: cell-based; conditions: read-out: maximal responses (three parameters), % of that observed with WT AR
# T3 construct: expressed in transfected cells
# T3 sequence (P10275 1-920 F765L): T1 sequence (P10275 1-920) with F765L
# HeLa GFP-AR cells = assay: Cell cycle analysis by DNA content (DAPI)/EdU incorporation in unsynchronized cells; type: cell-based, human; conditions: for EC50: Homo sapiens, HeLa, 18 h
# Method: To perform these studies, we simplified the HCS cell cycle analysis techniques described by Gesparri et al. to a DNA content (DAPI)/EdU incorporation biparametric analysis to identify G1, S phase, and G2 cells in unsynchronized growing cells (Fig. 6A). Cells were prepared as normal except with a brief 30 minute exposure to 10 µM EdU, which will incorporate into newly synthesized DNA similar to BrdU, prior to fixation. During image analysis, total nuclear DAPI signal (DNA) and mean nuclear EdU signal from each cell was quantified and used to determine cell cycle.
# For experiments in which cell cycle effects were determined, cells were labeled using an Invitrogen Click-iT cell cycle analysis kit using supplied protocols. Prior to fixation, cells were exposed to 10 µM EdU for 30 minutes. Cells with EdU incorporation were labeled by an EdU specific antibody conjugated to an A647 florescent marker. Because the Click-iT labeling decreases GFP signal intensity, AR was labeled using an Anti-AR antibody (Dr. Nancy Weigel) and A488 secondary antibody (Molecular Probes).
# [4] = target: T1, GFP-AR (wild type androgen receptor); assay: HT imaging: AR nuclear translocation (FLIN) in stable HeLa GFP-AR cells
# Text: as §1
# [5] = target: T1, GFP-AR (wild type androgen receptor); assay: HT imaging: pARR2PB-dsRED2skl transcriptional reporter gene activity (CORR2) in stable HeLa GFP-AR cells; type: cell-based; parameters: expressed in transfected cells
# Text: Cells were imaged in PBS.
# [6] = target: T1, GFP-AR (wild type androgen receptor); assay: HT imaging: AR nuclear hyperspeckling (NVAR) in stable HeLa GFP-AR cells
# Text: as §1
smiles,measurement,setting,value
CC(C)(C)CC(C)(C)c1ccc(O)cc1 [Octophenol],response on any of the three parameters measured (in words),[1]; compound alone,did not yield a significant response
same,response on any of the three parameters / AR antagonistic activity (in words),[1]; with 10 nM R1881 (competition),did not yield a significant response
"C[C@@H]1CC2=CC(=O)CC[C@@H]2[C@H]2CC[C@@]3(C)[C@@H](CC[C@]3(C)O)[C@@H]21 [Mibolerone, mibolerone]",difference of results from those observed with WT-AR,[2]; compound alone,≤ 1%
same,Emax,[3],85 to 105%
"C[C@]1(O)CC[C@H]2[C@@H]3CCC4=CC(=O)CCC4=C3C=C[C@@]21C [R1881, Methyltrienolone]",difference of results from those observed with WT-AR,[2],≤ 1%
same,Emax,[3],40 to 60%
same,S % (I + II),"HeLa GFP-AR cells; 100 nM, untreated control 42.6",0.7%
same,EC50,HeLa GFP-AR cells; read-out: EC50 of G1/S block,0.1 ± 0.03 nM
same,EC50,HeLa GFP-AR cells; read-out: EC50 of reduction in S-phase cells,0.07 ± 0.02 nM
same,cells with a majority of the GFP signal in the nucleus,[4],95–97%
same,more AR in the nucleus in G2 cells compared to G1 cells,[4],8–12%
same,time AR distribution remained nuclear after ligand pulse,[4],up to 15 hr
same,concentration at which saturation of response is observed,"[1]; FLIN, NVAR, CORR2, titration 10−6 M to 10−11 M",≈ 100 nM
CC(C)=CC(=O)O[C@H]1Cc2cc3ccc(=O)oc3cc2OC1(C)C [Decursin],IC50,[5],10.6 ± 0.865 µM
same,decrease in transcriptional reporter gene activity (dsRED2skl reporter signal),[5]; with 10 nM R1881,45%
same,EC50,[4],0.853 ± 0.0884 µM
same,IC50,[4],13.2 ± 0.152 µM
same,decrease in R1881-induced nuclear translocation,[4]; with 10 nM R1881,95%
same,IC50,[6],12.3 ± 0.43 µM
same,reduction/loss of agonist-induced hyperspeckling (NVAR),[6]; with 10 nM R1881,94%
"CC(C)(O)C(=O)Nc1ccc([N+](=O)[O-])c(C(F)(F)F)c1 [OHF, o-hydroxyflutamide]",concentration at which agonist effect / activation of the T877A mutant is observed,[2]; compound alone,75 to 85 nM
same,effect on the cell cycle (in words),HeLa GFP-AR cells; 18 hr treatment,did not have any appreciable effect on the cell cycle
same,induction of transcriptional reporter gene activity (in words),[5]; compound alone,no significant hyperspeckling or induction of transcription
same,induction of nuclear hyperspeckling (in words),[6]; compound alone,no significant hyperspeckling
